This note sets out measurements from patent EP0338435A1, “3,4-Dihydroxypyrrolidin-2-one derivatives, process for their preparation, agents containing them and their use as well as the intermediates resulting from the preparation” (HOECHST AKTIENGESELLSCHAFT, priority 1988, dated 1989).

Read-outs that look alike come from different tables or passages of the source.

The test system of assay [1] is ECS-Amnesie. Kind of assay: inhibitory (passive) avoidance test (step-through test), reversal of ECS-induced amnesia. The class given is in vivo, Mäusen. The settings on record: po. From the text:
(§1) Die Verbindungen der Formel I besitzen wertvolle pharmakologische Eigenschaften, insbesondere nootrope. Die nootrope Wirkung der erfindungsgemäßen Verbindungen wurde an Mäusen, die ein Körpergewicht von 20-25 g besaßen, im inhibitory (passive) avoidance test (step-through-test) geprüft. Eine modifizierte Form der von J. Kopp. Z. Bodanecky und M.E. Jarvik beschriebenen Test-Methode wurde von J. Bures, 0. Buresova und J. Huston im "Techniques and Basic Experiments for the Study of Brain and Benavior", Elsevier Scientific Publishers, Amsterdam 1983, beschrieben.
(§2) Entsprechend diesen Literaturangaben wird eine Substanz dann als nootrop wirksam bezeichnet, wenn sie bei den Versuchstieren die mittels eines electroconvulsiven Schocks erzeugte Amnesie (ECS-Amnesie) bzw. mittels Scopolamin-Injektion erzeugte Amnesie aufzuheben vermag.
(§3) Die Versuche wurden nach modifizierten Test-Methoden mit den erfindungsgemäßen Verbindungen durchgeführt. Als Vergleichsverbindung diente das bekannte Nootropikum 2-0xo-1-pyrrolidinylessigsäurea- mid (Piracetam). Die deutliche Überlegenheit der erfindungsgemäßen Verbindungen über die Vergleichssubstanz zeigte sich darin, daß der amnestische Effekt bereits mit einer MED (minimal effective dose) von 1-10 mg/kg p.o. aufzuheben ist. Die Vergleichssubstanz hat eine MED von ca. 500-1000 mg/kg p.o.

The subject of assay [2] is Scopolamin-Amnesie. Kind of assay: inhibitory (passive) avoidance test (step-through test), reversal of scopolamine-induced amnesia. Format: in vivo, Mäusen. The settings on record: Mus musculus, po, read-out: Inhibitory avoidance MED mg/kg p.o. Scopolamin-Amnesie.
Description: as §1, §2, §3

[3] abbreviates: Mus musculus, read-out: Inhibitory avoidance MED mg/kg p.o. ECS-Amnesie.
Setting [4] is: Mus musculus, mice 20-25 g, amnesia induced by electroconvulsive shock, read-out: Inhibitory avoidance MED mg/kg p.o. ECS-Amnesie.
The mark [5] stands for this setting: mice 20-25 g, amnesia induced by scopolamine injection.

With `CC(C)N(CCNC(=O)CN1C[C@@H](O)[C@@H](O)C1=O)C(C)C` [Beispiel 28, N-[2-(Diisopropylamino)ethyl]-2-[(3R,4R)-3,4-dihydroxypyrrolidin-2-on-1-yl]acetamid], in assay [1] (setting [3]), the minimal effective dose stood at 10 mg/kg.

For the compound `O=C1[C@H](O)[C@H](O)CN1Cc1ccccc1` [Beispiel 29, 1-Benzyl-(3R,4R)-3.4-dihydroxy-pyrrolidin2-on], the minimal effective dose was determined as 3 mg/kg in assay [1] (setting [4]) and 1 mg/kg in assay [2] (setting [5]).

As for `Cc1ccc(CN2C[C@@H](O)[C@@H](O)C2=O)cc1` [Beispiel 33], the minimal effective dose in assay [1] (setting [4]) came to 3 mg/kg.

Turning to `COc1cccc(CN2C[C@@H](O)[C@@H](O)C2=O)c1` [Beispiel 34], the minimal effective dose in assay [1] (setting [4]) was determined as 3 mg/kg; in assay [2] (setting [5]) it was 1 mg/kg.

As for `Nc1ccc(CN2C[C@@H](O)[C@@H](O)C2=O)cc1` [Beispiel 36, 1-(4-Aminobenzyl)-(3R,4R)-3,4-dihydroxypyrrolidin-2-on], the minimal effective dose in assay [1] (setting [4]) was 3 mg/kg.

In the case of `NC(=O)CN1CCCC1=O` [Piracetam, 2-0xo-1-pyrrolidinylessigsäurea-mid, reference compound], the values for the minimal effective dose in assay [1] (setting [3]), in assay [1] (read-out: MED (minimal effective dose)) and in assay [2] were 1000 mg/kg, 500 to 1000 mg/kg and 500 mg/kg, respectively.
